Laboratory results: PMC6792352, “Limited Chemical Structural Diversity Found to Modulate Thyroid Hormone Receptor in the Tox21 Chemical Library” (Environmental Health Perspectives, 2019)
Counter-ions that a name gives are not always drawn.

Test: in vitro
Settings: rat, gh3-tre-luc cells

Row | SMILES | CC50 at 24 h (AC50 (uM) modified / 1000) [µM] | other results
1 | CCCCCCOc1ccc(O)cc1 [4-(Hexyloxy)phenol] | 25.3 | 
2 | CC1(CO)CN(c2ccccc2)NC1=O (stereo not drawn) [4-(Hydroxymethyl)-4-methyl-1-phenylpyrazolidin-3-one] | > 90 | 
3 | CSc1ccc(C=O)cc1 [4-(Methylthio)benzaldehyde] | > 90 | 
4 | CCC(C)(C)C1CCC(=O)CC1 [4-(tert-Pentyl)-cyclohexanone] | > 90 | 
5 | CC(=O)Nc1ccc(C(=O)O)cc1 [4-Acetamidobenzoic acid] | > 90 | 
6 | CC(=O)Nc1ccc(CC(=O)O)cc1 [4-Acetylaminophenylacetic acid] | > 90 | 
7 | CC(=O)Oc1ccc(C(C)=O)cc1 [4-Acetylphenyl acetate] | > 100 | 
8 | Nn1cnnc1 [4-Amino-1,2,4-triazole] | > 90 | 
9 | COc1cc(S(=O)(=O)Nc2ccccc2)c(OC)cc1N [4-Amino-2,5-dimethoxy-N-phenylbenzenesulfonamide] | > 90 | 
10 | Nc1cc(Cl)c(O)c(Cl)c1 [4-Amino-2,6-dichlorophenol] | 83.2 | 
11 | Nc1ccc(O)c([N+](=O)[O-])c1 [4-Amino-2-nitrophenol] | > 90 | 
12 | NCC(O)CC(=O)O (stereo not drawn) [4-Amino-3-hydroxybutyric acid] | > 50 | 
13 | Cc1cc(Nc2ccc(O)cc2)ccc1N [4-Amino-4'-hydroxy-3-methyldiphenylamine] | 11.4 | 
14 | CC(C)(C)c1n[nH]c(=S)n(N)c1=O [4-Amino-6-tert-butyl-3-thioxo-3,4-dihydro-1,2,4-triazin-5(2H)-one] | > 90 | 
15 | Cc1cc(O)ccc1N [4-Amino-m-cresol] | 29.9 | 
16 | CC(=O)Nc1ccc(N)cc1 [4-Aminoacetanilide] | > 90 | 
17 | Nc1ccc(N=Nc2ccccc2)cc1 [4-Aminoazobenzene] | > 90 | 
18 | NC(=O)c1ccc(N)cc1 [4-Aminobenzamide] | > 90 | 
19 | Nc1ccc(C(=O)O)cc1 [4-Aminobenzoic acid] | > 90 | 
20 | NCCCC(=O)O [4-Aminobutanoic acid] | > 50 | 
21 | Nc1nc(N)c2nc(CNc3ccc(C(=O)N[C@@H](CCC(=O)O)C(=O)O)cc3)cnc2n1 [4-Aminofolic acid] | > 50 | 
22 | Nc1ccncc1 [4-Aminopyridine] | > 90 | 
23 | C[C@]12CCC(=O)C=C1CC[C@@H]1[C@@H]2CC[C@]2(C)C(=O)CC[C@@H]12 [4-Androstene-3,17-dione] |  | CC50 at 24 h (AC50 (uM) modified / 1000, Tox21_110001=Tox21_110893, viability, 1 nM T3 present, 24 h): > 50 µM; CC50 at 24 h (AC50 (uM) modified / 1000, Tox21_110001=Tox21_202269, viability, 1 nM T3 present, 24 h): > 90 µM
24 | COc1ccc(N=[N+]([O-])c2ccc(OC)cc2)cc1 [4-Azoxyanisole] | > 90 | 
25 | Oc1ccc(Cc2ccccc2)cc1 [4-Benzylphenol] | 84.1 | 

Row | SMILES | CC50 at 24 h (AC50 (uM) modified / 1000) [µM] | other results
26 | Nc1ccc(-c2ccccc2)cc1 [4-Biphenylamine] |  | CC50 at 24 h (AC50 (uM) modified / 1000, Tox21_110001=Tox21_200376, viability, 1 nM T3 present, 24 h): > 90 µM
27 | COc1cc(CC(C)N)c(OC)cc1Br (stereo not drawn) [4-Bromo-2,5-dimethoxyamphetamine hydrochloride] | 40.8 | 
28 | Nc1ccc(Br)cc1 [4-Bromoaniline] | > 90 | 
29 | BrCc1ccc(Br)cc1 [4-Bromobenzyl bromide] | > 90 | 
30 | Brc1ccc(-c2ccccc2)cc1 [4-Bromobiphenyl] | > 90 | 
31 | Cc1ccc(Br)cc1 [4-Bromotoluene] | > 90 | 
32 | CCCCc1ccc(N)cc1 [4-Butylaniline] | > 90 | 
33 | CCCCc1ccc(Cl)cc1 [4-Butylchlorobenzene] | > 90 | 
34 | CCCCC1CCC(O)CC1 (stereo not drawn) [4-Butylcyclohexanol] | > 90 | 
35 | CCCCOc1ccc(N)cc1 [4-Butyloxyaniline] | > 90 | 
36 | CCCCc1ccc(O)cc1 [4-Butylphenol] | 92.9 | 
37 | O=C1CCCO1 [4-Butyrolactone] |  | CC50 at 24 h (AC50 (uM) modified / 1000, Tox21_110001=Tox21_200490, viability, 1 nM T3 present, 24 h): > 90 µM
38 | O=Cc1ccc(C(=O)O)cc1 [4-Carboxybenzaldehyde] | > 90 | 
39 | Nc1ccc(Cl)c(N)c1 [4-Chloro-1,3-diaminobenzene] | > 90 | 
40 | Oc1ccc(Cl)cc1C1CCCC1 [4-Chloro-2-cyclopentylphenol] | 55.3 | 
41 | Cc1cc(Cl)ccc1N [4-Chloro-2-methylaniline hydrochloride] | > 90 | 
42 | COc1ccc(Cl)cc1C [4-Chloro-2-methylanisole] | > 100 | 
43 | Cc1cc(Cl)ccc1O [4-Chloro-2-methylphenol] | > 90 | 
44 | Nc1ccc(Cl)cc1[N+](=O)[O-] [4-Chloro-2-nitroaniline] | > 90 | 
45 | Cc1cc(O)cc(C)c1Cl [4-Chloro-3,5-dimethylphenol] | > 90 | 
46 | Cc1cc(O)ccc1Cl [4-Chloro-3-methylphenol] |  | CC50 at 24 h (AC50 (uM) modified / 1000, Tox21_110001=Tox21_111116, viability, 1 nM T3 present, 24 h): > 50 µM; CC50 at 24 h (AC50 (uM) modified / 1000, Tox21_110001=Tox21_201293, viability, 1 nM T3 present, 24 h): > 90 µM
47 | O=Cc1ccc(Cl)c([N+](=O)[O-])c1 [4-Chloro-3-nitrobenzaldehyde] | > 90 | 
48 | Nc1ccc(Oc2ccc(Cl)cc2)cc1 [4-Chloro-4'-aminodiphenyl ether] | > 90 | 
49 | Nc1ccc(Cl)cc1 [4-Chloroaniline hydrochloride] |  | CC50 at 24 h (AC50 (uM) modified / 1000, Tox21_110001=Tox21_201627, viability, 1 nM T3 present, 24 h): > 90 µM
50 | O=Cc1ccc(Cl)cc1 [4-Chlorobenzaldehyde] | > 90 | 

Row | SMILES | CC50 at 24 h (AC50 (uM) modified / 1000) [µM] | other results
51 | O=S(=O)(O)c1ccc(Cl)cc1 [4-Chlorobenzenesulfonic acid] | > 90 | 
52 | N#Cc1ccc(Cl)cc1 [4-Chlorobenzonitrile] |  | CC50 at 24 h (AC50 (uM) modified / 1000, Tox21_110001=Tox21_301477, viability, 1 nM T3 present, 24 h): > 90 µM
53 | Clc1ccc(C(Cl)(Cl)Cl)cc1 [4-Chlorobenzotrichloride] | > 90 | 
54 | Oc1ccc(Cl)cc1 [4-Chlorophenol] | > 90 | 
55 | O=C(O)COc1ccc(Cl)cc1 [4-Chlorophenoxyacetic acid] | > 90 | 
56 | O=C=Nc1ccc(Cl)cc1 [4-Chlorophenyl isocyanate] | > 90 | 
57 | CSc1ccc(Cl)cc1 [4-Chlorophenyl methyl sulfide] | > 90 | 
58 | CS(=O)(=O)c1ccc(Cl)cc1 [4-Chlorophenyl methyl sulfone] | > 90 | 
59 | O=S(=O)(c1ccccc1)c1ccc(Cl)cc1 [4-Chlorophenyl phenyl sulfone] | > 90 | 
60 | NC(=O)Nc1ccc(Cl)cc1 [4-Chlorophenylurea] | > 90 | 
61 | [O-][n+]1ccc(Cl)cc1 [4-Chloropyridine 1-oxide] | > 100 | 
62 | Cc1ccc(Cl)cc1 [4-Chlorotoluene] | > 100 | 
63 | N#Cc1ccc(C(=O)O)cc1 [4-Cyanobenzoic acid] | > 90 | 
64 | CC(=O)CC(C)(C)C1CCCCC1 [4-Cyclohexyl-4-methyl-pentan-2-one] | > 90 | 
65 | OC1CCC(C2CCCCC2)CC1 (stereo not drawn) [4-Cyclohexylcyclohexanol] | > 90 | 
66 | O=C1CCC(C2CCCCC2)CC1 [4-Cyclohexylcyclohexanone] | > 90 | 
67 | Cc1c(N(C)C)c(=O)n(-c2ccccc2)n1C [4-Dimethylaminoantipyrine] | > 50 | 
68 | CN(C)c1ccc(C=O)cc1 [4-Dimethylaminobenzaldehyde] | > 90 | 
69 | CCCCCCCCCCCCN1CCOCC1 [4-Dodecylmorpholine] | > 90 | 
70 | CCCCCCCCCCCCc1ccc(O)cc1 [4-Dodecylphenol] | 15.6 | 
71 | C=Cc1ccc(OC(C)=O)cc1 [4-Ethenylphenyl acetate] | > 90 | 
72 | CCOc1ccc(N)c([N+](=O)[O-])c1 [4-Ethoxy-2-nitroaniline] | > 90 | 
73 | CCOC(=O)C=CC(=O)O [4-Ethoxy-4-oxobut-2-enoic acid] | > 90 | 
